Measurements reported in patent US20240325544A1, “CATIONIC LIPID FOR COVALENT MODIFICATION OF PEPTIDES” (PharmalN Corporation, priority 2023, published 2024).
Bridge positions count the residues as written; N and C are the ends. Square brackets hold non-standard residues; d marks the D form. Peptide text beside a SMILES is read from it. * marks the point of attachment. Palmitoyl = CCCCCCCCCCCCCCCC(=O)*; Dap = NC[C@H](N)C(=O)O; AEEA = NCCOCCOCC(=O)O

Columns and labels:
[1] = test system: E0771 breast cancer cells; test: Orthotopic E0771 breast cancer model, monotherapy or with anti-PD1 Ab (FIG. 9); type: in vivo, mice
Method: FIG. 9. […] Error bars represent standard error of the mean. Tumor growth kinetics of 6-week-old female C57BL/6J mice (n=7-8 per group) that were orthotopically inoculated with E0771 breast cancer cells (250,000 cells/mouse) in the mammary gland. Starting from Day 4 post-inoculation, anti-PD1 Ab (aPD1) was administered intraperitoneally at 5 mg/kg twice a week for 2 cycles; SEQ ID NO: 31 was administered subcutaneously at a bolus dose of 0.3 mg/kg once daily for 5 days (5 days on, 2 days off) for 3 cycles; or a combination of aPD1 (5 mg/kg IP twice a week; 2 cycles) and SEQ ID NO: 31 (0.3 mg/kg SC once a day for 5 days on and 2 days off; 3 cycles); SEQ ID NO: 31 dose days indicated by dotted line or gridlines. The control group, which received only buffer, was dosed in the same manner as SEQ ID NO: 31 to establish the baseline tumor growth kinetics. […] Statistical analysis was based on Dunnett's test performed by using GraphPad (n=8, 7, 8, and 7; Control, aPD1, SEQ ID NO: 31, Combo (aPD1 and SEQ ID NO: 31) * P<0.05, **** P<0.0001 vs Control group.
Animal care and treatment: Female C57BL/6J mice (6 weeks-old) were purchased from Kyudo (Saga, Japan) and maintained under a 12-hour light/12-hour dark cycle with free access to water and standard mouse diet (CRF diet; Oriental Yeast Co., Ltd, Tokyo Japan). […] Tumor sizes were measured using calipers.

LM8 osteosarcoma cells = test: Orthotopic mouse model of lung metastasis using osteosarcoma LM8 cells with amputation (FIG. 11); type: in vivo, mice; settings: 0.3 mg/kg SC with amputation on Day 7; Day 34
Method: FIGS. 11A-11C. […] Error bars indicate standard error of the mean. […] Also illustrated in this diagram are the corresponding treatment schedules for SEQ ID NO: 31 and amputation. From tumor implantation, the SEQ ID NO: 31 treated group was dosed SC (0.3 mg/kg/0.1 μmol/kg in buffer) on Days 4-8, 11-15, 18-22, and 25-26. On Day 7 post-inoculation, all mice underwent amputation to remove the primary tumor. In place of treatment, the amputated control group also received buffer on the same days that SEQ ID NO: 31 was administered. Mice were sacrificed on Day 34, and lung tissues were harvested. FIGS. 11B and 11C) Lung tissues were soaked in 4% paraformaldehyde, paraffin-embedded, and sections were stained with hematoxylin and eosin (H&E). Lung images were observed using high-resolution microscopy (Keyence, Tokyo, Japan, #BZ-X700), and lung metastasis was evaluated by the direct count of present metastatic lung nodules. […]
Animal care and treatment: Male […] mice (7 weeks-old) were purchased from Kyudo (Saga, Japan) and maintained under a 12-hour light/12-hour dark cycle with free access to water and standard mouse diet (MF diet; Oriental Yeast Co., Ltd., Tokyo, Japan). […] Lung images were observed using the high-resolution microscopy (Keyence, Tokyo, Japan, #BZ-X700), and lung metastasis was evaluated by the direct count of present metastatic nodules (FIG. 11C). […]

For `CCCCCCCCCCCCCCCC(=O)NCCOCCOCC(=O)NCCOCCOCC(=O)NCCOCCOCC(=O)N[C@@H](CN)C(=O)N[C@@H](CN)C(=O)NCC(=O)N[C@@H](CC(C)C)C(=O)N[C@@H](CO)C(=O)N[C@@H](CCCCN)C(=O)NCC(=O)N[C@H]1CSSC[C@@H](C(=O)O)NC(=O)CNC(=O)[C@H](CC(C)C)NC(=O)CNC(=O)[C@H](CO)NC(=O)[C@H](CCC(N)=O)NC(=O)[C@H](CO)NC(=O)CNC(=O)[C@H]([C@@H](C)CC)NC(=O)[C@H](CCCNC(=N)N)NC(=O)[C@H](CC(=O)O)NC(=O)[C@H](CC(C)C)NC(=O)[C@H](CCCCN)NC(=O)[C@H](CC(C)C)NC(=O)CNC(=O)[C@H](Cc2ccccc2)NC1=O` [SEQ ID NO: 31] ({Palmitoyl-AEEA-AEEA-AEEA}-[Dap][Dap]GLSKGCFGLKLDRIGSQSGLGC-OH; disulfide 8-24; C-terminus assumed), the “Tumor volume compared to Control group and aPD1 group” value ([1]; combination with aPD1 5 mg/kg IP twice a week, 2 cycles) was “significant decrease in tumor volume”, the “Tumor volume compared to Control group and aPD1 group” value ([1]; monotherapy, 0.3 mg/kg SC, 5 days on, 2 days off, 3 cycles) was “significant decrease in tumor volume” and the “Metastatic nodules present in the lung vs amputation alone” value (LM8 osteosarcoma cells) was “significant reduction”.
